#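 Exposure lasted 48 hours, with cells grown in 96-well plates and compounds tested at five concentrations. The concentration for 50% growth inhibition is given as GI50.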 Active and inactive are the calls of the source. No stated cut-off is given here; in the data, active = GI50 up to about 1.1 µM and inactive = higher.
# Legend:
# Test in all cases: NCI anticancer screen, dose series, 48 h
# MDA-MB-231 = test system: MDA-MB-231
# NCI-H226 = test system: NCI-H226
# MOLT-4 = test system: MOLT-4
# SK-MEL-5 = test system: SK-MEL-5
# SR = test system: SR
# UO-31 = test system: UO-31
# ACHN = test system: ACHN
# RXF 393 = test system: RXF 393
# 786-0 = test system: 786-0
# CCRF-CEM = test system: CCRF-CEM
# SW-620 = test system: SW-620
# SK-MEL-2 = test system: SK-MEL-2
# MDA-MB-435 = test system: MDA-MB-435
# M14 = test system: M14
# CAKI-1 = test system: CAKI-1
# HT-29 = test system: HT-29
# HCT-116 = test system: HCT-116
# SNB-75 = test system: SNB-75
# NCI-H460 = test system: NCI-H460
# SF-295 = test system: SF-295
SMILES,GI50 (MDA-MB-231),GI50 (NCI-H226),GI50 (MOLT-4),GI50 (SK-MEL-5),GI50 (SR),GI50 (UO-31),GI50 (ACHN),GI50 (RXF 393),GI50 (786-0),GI50 (CCRF-CEM),GI50 (SW-620),GI50 (SK-MEL-2),GI50 (MDA-MB-435),GI50 (M14),GI50 (CAKI-1),GI50 (HT-29),GI50 (HCT-116),GI50 (SNB-75),GI50 (NCI-H460),GI50 (SF-295)
CCOC(=O)C(NC(C)=O)(Nc1ccc(S(N)(=O)=O)cc1)C(F)(F)F (stereo not given),> 100 µM (inactive),> 100 µM (inactive),> 100 µM (inactive),> 100 µM (inactive),> 100 µM (inactive),> 100 µM (inactive),> 100 µM (inactive),> 100 µM (inactive),> 100 µM (inactive),> 100 µM (inactive),> 100 µM (inactive),> 100 µM (inactive),> 100 µM (inactive),> 100 µM (inactive),> 100 µM (inactive),> 100 µM (inactive),> 100 µM (inactive),> 100 µM (inactive),> 100 µM (inactive),> 100 µM (inactive)
CCN(CC)c1ccc(C(=C2C=CC(=[N+](CC)CC)C=C2)c2ccc(N(CC)CC)cc2)cc1,0.063 µM (active),0.407 µM (active),0.115 µM (active),0.094 µM (active),0.0843 µM (active),0.212 µM (active),0.0446 µM (active),0.18 µM (active),0.057 µM (active),0.0593 µM (active),0.0711 µM (active),0.117 µM (active),0.111 µM (active),0.175 µM (active),0.21 µM (active),0.0414 µM (active),0.0493 µM (active),0.104 µM (active),0.0411 µM (active),0.0483 µM (active)
CCOC(=O)C1=[N+]([O-])OC2=C(O)CCCC21 (stereo not given),> 100 µM (inactive),> 100 µM (inactive),> 100 µM (inactive),> 100 µM (inactive),> 100 µM (inactive),> 100 µM (inactive),> 100 µM (inactive),> 100 µM (inactive),> 100 µM (inactive),> 100 µM (inactive),> 100 µM (inactive),> 100 µM (inactive),> 100 µM (inactive),> 100 µM (inactive),> 100 µM (inactive),> 100 µM (inactive),> 100 µM (inactive),> 100 µM (inactive),> 100 µM (inactive),> 100 µM (inactive)
O=[N+]([O-])c1ccc(Sc2c3ccccc3nc3ccccc23)cn1,18 µM (inactive),> 100 µM (inactive),2.19 µM (inactive),35.1 µM (inactive),3.12 µM (inactive),15.3 µM (inactive),12.2 µM (inactive),31.8 µM (inactive),2.59 µM (inactive),2.39 µM (inactive),3.88 µM (inactive),25.4 µM (inactive),16.7 µM (inactive),8.97 µM (inactive),5.61 µM (inactive),9.02 µM (inactive),3.6 µM (inactive),24.9 µM (inactive),> 72.9 µM (inactive),> 100 µM (inactive)
C/C(=N\Nc1nc2ccccc2s1)c1cc2ccccc2cn1,4.88 µM (inactive),1.73 µM (inactive),0.41 µM (active),3.18 µM (inactive),2.41 µM (inactive),1.48 µM (inactive),2.88 µM (inactive),3.61 µM (inactive),2.52 µM (inactive),2.81 µM (inactive),3.95 µM (inactive),6.79 µM (inactive),5.24 µM (inactive),4.01 µM (inactive),3.03 µM (inactive),3.31 µM (inactive),3.03 µM (inactive),3.24 µM (inactive),3.56 µM (inactive),3.7 µM (inactive)
CCOC(CN(C)C(=O)Nc1ccc(Cl)c(Cl)c1)OCC,> 10 µM (inactive),> 10 µM (inactive),> 10 µM (inactive),> 10 µM (inactive),> 10 µM (inactive),> 10 µM (inactive),> 10 µM (inactive),> 10 µM (inactive),> 10 µM (inactive),> 10 µM (inactive),> 10 µM (inactive),> 10 µM (inactive),> 10 µM (inactive),> 10 µM (inactive),> 10 µM (inactive),> 10 µM (inactive),> 10 µM (inactive),> 10 µM (inactive),> 10 µM (inactive),> 10 µM (inactive)
O=C(CCOS(=O)(=O)CF)N1CCN(C(=O)CCOS(=O)(=O)CF)CC1,> 100 µM (inactive),> 88.7 µM (inactive),3.03 µM (inactive),51.6 µM (inactive),9.08 µM (inactive),66.7 µM (inactive),17.1 µM (inactive),59.3 µM (inactive),28.4 µM (inactive),3.27 µM (inactive),> 100 µM (inactive),> 100 µM (inactive),> 100 µM (inactive),58.6 µM (inactive),5.36 µM (inactive),> 100 µM (inactive),57 µM (inactive),10.1 µM (inactive),5.27 µM (inactive),32.6 µM (inactive)
Cc1nc2ccccc2n1CCc1nc2ccccc2[nH]1,> 100 µM (inactive),31.6 µM (inactive),> 100 µM (inactive),> 100 µM (inactive),> 100 µM (inactive),> 100 µM (inactive),> 100 µM (inactive),> 100 µM (inactive),> 100 µM (inactive),> 100 µM (inactive),> 100 µM (inactive),> 100 µM (inactive),> 100 µM (inactive),> 100 µM (inactive),> 100 µM (inactive),> 100 µM (inactive),> 100 µM (inactive),> 100 µM (inactive),> 100 µM (inactive),> 100 µM (inactive)
CN1CCOC1c1ccccc1O (stereo not given),> 100 µM (inactive),> 100 µM (inactive),> 100 µM (inactive),> 100 µM (inactive),> 100 µM (inactive),> 100 µM (inactive),> 100 µM (inactive),> 100 µM (inactive),> 100 µM (inactive),> 100 µM (inactive),> 100 µM (inactive),> 100 µM (inactive),> 100 µM (inactive),> 100 µM (inactive),> 100 µM (inactive),> 100 µM (inactive),> 100 µM (inactive),85.3 µM (inactive),> 100 µM (inactive),> 100 µM (inactive)
CC(C)OC(=O)OCSc1ccccc1/N=C/c1cccc([N+](=O)[O-])c1,> 10 µM (inactive),> 10 µM (inactive),> 10 µM (inactive),> 10 µM (inactive),> 10 µM (inactive),> 10 µM (inactive),> 10 µM (inactive),> 10 µM (inactive),> 10 µM (inactive),> 10 µM (inactive),> 10 µM (inactive),> 10 µM (inactive),> 10 µM (inactive),> 10 µM (inactive),> 10 µM (inactive),> 10 µM (inactive),> 10 µM (inactive),> 10 µM (inactive),> 10 µM (inactive),> 10 µM (inactive)
